Assay results from ChEMBL document CHEMBL4507258 (2021).

Assays:
[1] = system: Tyrosine-protein kinase ABL1 (Homo sapiens), P00519 [M351T]; details: Compound concentration 1000.0 nM
[2] = molecular target: Activin receptor type-1-like (Homo sapiens) (UniProt P37023); details: Compound concentration 1000.0 nM
[3] = molecular target: 5'-AMP-activated protein kinase catalytic subunit alpha-1 (Homo sapiens) (UniProt Q13131); details: Compound concentration 1000.0 nM
[4] = molecular target: Calcium/calmodulin-dependent protein kinase type II subunit beta (Homo sapiens) (UniProt Q13554); details: Compound concentration 1000.0 nM
[5] = molecular target: Cyclin-dependent kinase 4 (Homo sapiens) (UniProt P11802); details: Compound concentration 1000.0 nM
[6] = molecular target: Cyclin-dependent kinase 5 (Homo sapiens) (UniProt Q00535); details: Compound concentration 1000.0 nM
[7] = molecular target: Cyclin-dependent kinase 8 (Homo sapiens) (UniProt P49336); details: Compound concentration 1000.0 nM
[8] = molecular target: Dual specificity protein kinase CLK2 (Homo sapiens) (UniProt P49760); details: Compound concentration 1000.0 nM
[9] = molecular target: Dual specificity protein kinase CLK3 (Homo sapiens) (UniProt P49761); details: Compound concentration 1000.0 nM
[10] = molecular target: Dual specificity protein kinase CLK4 (Homo sapiens) (UniProt Q9HAZ1); details: Compound concentration 1000.0 nM
[11] = molecular target: Macrophage colony-stimulating factor 1 receptor (Homo sapiens) (UniProt P07333); details: Compound concentration 1000.0 nM
[12] = molecular target: Casein kinase I isoform alpha (Homo sapiens) (UniProt P48729); details: Compound concentration 1000.0 nM
[13] = molecular target: Casein kinase I isoform alpha-like (Homo sapiens) (UniProt Q8N752); details: Compound concentration 1000.0 nM
[14] = molecular target: Serine/threonine-protein kinase MRCK gamma (Homo sapiens) (UniProt Q6DT37); details: Compound concentration 1000.0 nM
[15] = molecular target: Serine/threonine-protein kinase 17B (Homo sapiens) (UniProt O94768); details: Compound concentration 1000.0 nM
[16] = system: Epidermal growth factor receptor (Homo sapiens), P00533 [UNDEFINED MUTATION]; details: Compound concentration 1000.0 nM
[17] = molecular target: Receptor tyrosine-protein kinase erbB-4 (Homo sapiens) (UniProt Q15303); details: Compound concentration 1000.0 nM
[18] = molecular target: Fibroblast growth factor receptor 4 (Homo sapiens) (UniProt P22455); details: Compound concentration 1000.0 nM
[19] = system: Receptor-type tyrosine-protein kinase FLT3 (Homo sapiens), P36888 [D835V]; details: Compound concentration 1000.0 nM
[20] = system: Receptor-type tyrosine-protein kinase FLT3 (Homo sapiens), P36888 [R834Q]; details: Compound concentration 1000.0 nM
[21] = molecular target: Tyrosine-protein kinase FRK (Homo sapiens) (UniProt P42685); details: Compound concentration 1000.0 nM
[22] = molecular target: Cyclin-G-associated kinase (Homo sapiens) (UniProt O14976); details: Compound concentration 1000.0 nM
[23] = molecular target: Glycogen synthase kinase-3 beta (Homo sapiens) (UniProt P49841); details: Compound concentration 1000.0 nM
[24] = molecular target: Insulin-like growth factor 1 receptor (Homo sapiens) (UniProt P08069); details: Compound concentration 1000.0 nM
[25] = molecular target: Tyrosine-protein kinase JAK3 (Homo sapiens) (UniProt P52333); details: Compound concentration 1000.0 nM
[26] = system: Leucine-rich repeat serine/threonine-protein kinase 2 (Homo sapiens), Q5S007 [G2019S]; details: Compound concentration 1000.0 nM
[27] = molecular target: Mitogen-activated protein kinase kinase kinase 2 (Homo sapiens) (UniProt Q9Y2U5); details: Compound concentration 1000.0 nM
[28] = molecular target: Mitogen-activated protein kinase kinase kinase 4 (Homo sapiens) (UniProt Q9Y6R4); details: Compound concentration 1000.0 nM
[29] = molecular target: Serine/threonine-protein kinase mTOR (Homo sapiens) (UniProt P42345); details: Compound concentration 1000.0 nM
[30] = molecular target: Serine/threonine-protein kinase Nek2 (Homo sapiens) (UniProt P51955); details: Compound concentration 1000.0 nM
[31] = molecular target: Serine/threonine-protein kinase PAK 6 (Homo sapiens) (UniProt Q9NQU5); details: Compound concentration 1000.0 nM
[32] = molecular target: Platelet-derived growth factor receptor alpha (Homo sapiens) (UniProt P16234); details: Compound concentration 1000.0 nM
[33] = molecular target: Phosphorylase b kinase regulatory subunit alpha, liver isoform (Homo sapiens) (UniProt P46019); details: Compound concentration 1000.0 nM
[34] = system: Phosphatidylinositol 4,5-bisphosphate 3-kinase catalytic subunit alpha isoform (Homo sapiens), P42336 [E542K]; details: Compound concentration 1000.0 nM
[35] = system: Phosphatidylinositol 4,5-bisphosphate 3-kinase catalytic subunit alpha isoform (Homo sapiens), P42336 [E545A]; details: Compound concentration 1000.0 nM
[36] = molecular target: 1-phosphatidylinositol 3-phosphate 5-kinase (Homo sapiens) (UniProt Q9Y2I7); details: Compound concentration 1000.0 nM
[37] = molecular target: Proto-oncogene tyrosine-protein kinase receptor Ret (Homo sapiens) (UniProt P07949); details: Compound concentration 1000.0 nM
[38] = molecular target: Proto-oncogene tyrosine-protein kinase ROS (Homo sapiens) (UniProt P08922); details: Compound concentration 1000.0 nM
[39] = molecular target: NUAK family SNF1-like kinase 2 (Homo sapiens) (UniProt Q9H093); details: Compound concentration 1000.0 nM
[40] = molecular target: SNF-related serine/threonine-protein kinase (Homo sapiens) (UniProt Q9NRH2); details: Compound concentration 1000.0 nM
[41] = molecular target: Serine/threonine-protein kinase TBK1 (Homo sapiens) (UniProt Q9UHD2); details: Compound concentration 1000.0 nM
[42] = molecular target: Serine/threonine-protein kinase TNNI3K (Homo sapiens) (UniProt Q59H18); details: Compound concentration 1000.0 nM
[43] = molecular target: Testis-specific serine/threonine-protein kinase 3 (Homo sapiens) (UniProt Q96PN8); details: Compound concentration 1000.0 nM
[44] = molecular target: 5-hydroxytryptamine receptor 1E (Homo sapiens) (UniProt P28566); details: Compound concentration 10.0 uM
[45] = molecular target: Sigma intracellular receptor 2 (Homo sapiens) (UniProt Q5BJF2); details: Compound concentration 10.0 uM
Chain of Sigma intracellular receptor 2 (Homo sapiens) (Q5BJF2 whole entry): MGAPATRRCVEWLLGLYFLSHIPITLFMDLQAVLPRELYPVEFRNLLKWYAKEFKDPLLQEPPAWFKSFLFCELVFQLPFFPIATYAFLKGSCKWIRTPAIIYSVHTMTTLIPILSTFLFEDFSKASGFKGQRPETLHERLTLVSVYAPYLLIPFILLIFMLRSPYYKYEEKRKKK

Chain of Serine/threonine-protein kinase 17B (Homo sapiens) (O94768 whole entry): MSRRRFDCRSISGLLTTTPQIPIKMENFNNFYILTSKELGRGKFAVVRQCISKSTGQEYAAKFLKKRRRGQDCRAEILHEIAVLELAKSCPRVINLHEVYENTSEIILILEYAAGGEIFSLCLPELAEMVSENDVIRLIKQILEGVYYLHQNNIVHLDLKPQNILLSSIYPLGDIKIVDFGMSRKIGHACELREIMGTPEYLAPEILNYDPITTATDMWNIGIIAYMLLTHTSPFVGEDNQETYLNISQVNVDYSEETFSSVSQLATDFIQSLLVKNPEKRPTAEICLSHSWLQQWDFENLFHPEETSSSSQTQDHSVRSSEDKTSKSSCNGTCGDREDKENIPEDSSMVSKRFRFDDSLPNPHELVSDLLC
Chain of 1-phosphatidylinositol 3-phosphate 5-kinase (Homo sapiens) (Q9Y2I7 whole entry): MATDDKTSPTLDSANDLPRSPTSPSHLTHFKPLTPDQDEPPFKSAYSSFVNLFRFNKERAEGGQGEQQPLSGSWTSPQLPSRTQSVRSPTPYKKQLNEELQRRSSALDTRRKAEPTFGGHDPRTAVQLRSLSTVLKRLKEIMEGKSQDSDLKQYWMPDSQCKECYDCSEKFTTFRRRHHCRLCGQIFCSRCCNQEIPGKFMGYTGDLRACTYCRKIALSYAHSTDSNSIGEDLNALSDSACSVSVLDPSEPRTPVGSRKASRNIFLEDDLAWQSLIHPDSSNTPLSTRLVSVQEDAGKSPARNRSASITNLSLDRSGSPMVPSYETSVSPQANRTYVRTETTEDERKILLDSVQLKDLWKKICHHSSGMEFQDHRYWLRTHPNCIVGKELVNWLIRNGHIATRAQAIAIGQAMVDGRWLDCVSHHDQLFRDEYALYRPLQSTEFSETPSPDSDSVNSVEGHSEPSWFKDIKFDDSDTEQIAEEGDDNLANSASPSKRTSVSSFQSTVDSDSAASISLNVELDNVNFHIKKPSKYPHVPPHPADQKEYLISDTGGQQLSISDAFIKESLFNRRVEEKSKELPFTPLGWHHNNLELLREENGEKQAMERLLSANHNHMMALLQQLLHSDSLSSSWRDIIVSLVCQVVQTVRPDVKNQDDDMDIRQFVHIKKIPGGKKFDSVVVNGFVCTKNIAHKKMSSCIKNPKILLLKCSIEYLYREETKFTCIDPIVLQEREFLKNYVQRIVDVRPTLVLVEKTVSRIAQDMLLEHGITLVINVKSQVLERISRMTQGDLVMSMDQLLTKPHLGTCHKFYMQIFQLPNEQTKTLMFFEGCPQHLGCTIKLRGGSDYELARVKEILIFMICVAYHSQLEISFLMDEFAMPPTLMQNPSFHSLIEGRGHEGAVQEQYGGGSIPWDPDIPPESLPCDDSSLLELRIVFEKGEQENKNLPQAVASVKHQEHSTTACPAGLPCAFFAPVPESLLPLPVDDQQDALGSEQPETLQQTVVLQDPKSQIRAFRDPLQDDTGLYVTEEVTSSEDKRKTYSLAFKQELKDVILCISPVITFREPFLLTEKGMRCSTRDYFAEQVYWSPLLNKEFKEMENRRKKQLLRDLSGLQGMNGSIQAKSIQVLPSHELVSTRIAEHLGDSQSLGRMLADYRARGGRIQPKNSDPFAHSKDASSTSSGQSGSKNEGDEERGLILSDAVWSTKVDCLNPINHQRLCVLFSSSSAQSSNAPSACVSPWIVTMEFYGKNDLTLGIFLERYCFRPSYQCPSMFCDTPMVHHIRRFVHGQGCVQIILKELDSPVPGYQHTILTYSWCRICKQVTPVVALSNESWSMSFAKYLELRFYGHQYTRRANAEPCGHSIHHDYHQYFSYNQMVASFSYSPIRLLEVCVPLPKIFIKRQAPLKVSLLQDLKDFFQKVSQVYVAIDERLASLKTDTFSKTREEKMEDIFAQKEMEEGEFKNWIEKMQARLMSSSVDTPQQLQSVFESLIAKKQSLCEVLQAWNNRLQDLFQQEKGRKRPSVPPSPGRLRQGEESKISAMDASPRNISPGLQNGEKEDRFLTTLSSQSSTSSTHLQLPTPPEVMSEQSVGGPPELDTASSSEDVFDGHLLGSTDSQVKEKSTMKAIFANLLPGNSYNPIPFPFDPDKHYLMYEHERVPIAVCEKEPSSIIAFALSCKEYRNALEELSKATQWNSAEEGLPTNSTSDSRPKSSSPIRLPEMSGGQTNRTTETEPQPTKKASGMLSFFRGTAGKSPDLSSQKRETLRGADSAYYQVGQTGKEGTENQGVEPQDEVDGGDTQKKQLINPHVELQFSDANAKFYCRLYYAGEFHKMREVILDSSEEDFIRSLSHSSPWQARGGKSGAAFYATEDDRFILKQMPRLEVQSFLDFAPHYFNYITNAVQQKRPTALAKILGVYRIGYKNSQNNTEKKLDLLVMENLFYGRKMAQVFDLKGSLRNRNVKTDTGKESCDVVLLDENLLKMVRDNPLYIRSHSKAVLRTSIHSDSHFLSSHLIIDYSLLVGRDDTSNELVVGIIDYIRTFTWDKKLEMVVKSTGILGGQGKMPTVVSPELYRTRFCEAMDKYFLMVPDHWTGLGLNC
Chain of Mitogen-activated protein kinase kinase kinase 2 (Homo sapiens) (Q9Y2U5 whole entry): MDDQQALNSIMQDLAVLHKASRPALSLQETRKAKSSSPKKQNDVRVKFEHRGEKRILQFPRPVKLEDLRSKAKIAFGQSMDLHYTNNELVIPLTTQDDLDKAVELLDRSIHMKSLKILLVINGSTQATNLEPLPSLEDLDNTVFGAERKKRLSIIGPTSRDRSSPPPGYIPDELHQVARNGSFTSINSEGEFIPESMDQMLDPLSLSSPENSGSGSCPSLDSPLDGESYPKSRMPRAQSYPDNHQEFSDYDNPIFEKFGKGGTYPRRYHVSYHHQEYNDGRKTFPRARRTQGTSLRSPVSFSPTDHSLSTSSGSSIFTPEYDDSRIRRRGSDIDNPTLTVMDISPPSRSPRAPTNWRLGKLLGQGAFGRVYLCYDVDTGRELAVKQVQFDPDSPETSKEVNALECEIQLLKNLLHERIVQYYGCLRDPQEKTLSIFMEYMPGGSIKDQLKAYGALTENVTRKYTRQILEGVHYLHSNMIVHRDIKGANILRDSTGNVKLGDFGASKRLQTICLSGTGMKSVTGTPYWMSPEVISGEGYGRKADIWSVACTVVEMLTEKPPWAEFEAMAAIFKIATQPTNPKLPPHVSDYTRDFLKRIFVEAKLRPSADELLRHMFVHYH
Chain of Serine/threonine-protein kinase TNNI3K (Homo sapiens) (Q59H18 whole entry): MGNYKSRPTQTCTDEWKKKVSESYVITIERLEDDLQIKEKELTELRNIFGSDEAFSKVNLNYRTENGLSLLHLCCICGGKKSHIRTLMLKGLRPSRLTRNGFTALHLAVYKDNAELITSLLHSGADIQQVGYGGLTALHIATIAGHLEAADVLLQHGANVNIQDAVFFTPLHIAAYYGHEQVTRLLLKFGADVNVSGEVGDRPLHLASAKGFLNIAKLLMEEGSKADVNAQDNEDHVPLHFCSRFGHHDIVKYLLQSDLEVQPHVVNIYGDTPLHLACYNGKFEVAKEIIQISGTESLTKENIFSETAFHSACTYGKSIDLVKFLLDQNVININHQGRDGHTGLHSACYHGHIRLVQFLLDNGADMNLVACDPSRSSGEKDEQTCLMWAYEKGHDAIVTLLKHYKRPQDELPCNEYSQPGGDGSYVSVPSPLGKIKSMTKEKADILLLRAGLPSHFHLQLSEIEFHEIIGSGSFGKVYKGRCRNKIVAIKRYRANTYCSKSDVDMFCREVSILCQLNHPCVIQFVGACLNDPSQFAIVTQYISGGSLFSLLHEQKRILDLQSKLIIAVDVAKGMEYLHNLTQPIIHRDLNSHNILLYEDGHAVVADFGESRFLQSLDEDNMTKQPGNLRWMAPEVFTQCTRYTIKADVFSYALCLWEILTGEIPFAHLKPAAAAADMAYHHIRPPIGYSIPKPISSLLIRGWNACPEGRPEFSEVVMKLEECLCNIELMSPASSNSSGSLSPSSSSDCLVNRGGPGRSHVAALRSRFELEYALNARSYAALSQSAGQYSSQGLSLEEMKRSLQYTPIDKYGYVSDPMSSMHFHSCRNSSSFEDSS
Chain of Activin receptor type-1-like (Homo sapiens) (P37023 whole entry): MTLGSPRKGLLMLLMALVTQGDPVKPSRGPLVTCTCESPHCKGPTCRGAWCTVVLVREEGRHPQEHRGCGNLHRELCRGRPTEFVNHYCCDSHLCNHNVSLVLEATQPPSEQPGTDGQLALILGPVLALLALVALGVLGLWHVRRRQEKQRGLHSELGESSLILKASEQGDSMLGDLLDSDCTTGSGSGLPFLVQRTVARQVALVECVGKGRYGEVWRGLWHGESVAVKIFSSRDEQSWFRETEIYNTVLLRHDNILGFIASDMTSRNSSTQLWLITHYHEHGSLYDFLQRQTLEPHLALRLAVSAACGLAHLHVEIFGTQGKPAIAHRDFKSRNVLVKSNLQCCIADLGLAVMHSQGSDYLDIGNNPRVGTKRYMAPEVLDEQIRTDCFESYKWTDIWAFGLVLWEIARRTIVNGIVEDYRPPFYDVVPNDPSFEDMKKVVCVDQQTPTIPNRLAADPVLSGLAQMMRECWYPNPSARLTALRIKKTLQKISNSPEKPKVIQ
Chain of Cyclin-dependent kinase 8 (Homo sapiens) (P49336 whole entry): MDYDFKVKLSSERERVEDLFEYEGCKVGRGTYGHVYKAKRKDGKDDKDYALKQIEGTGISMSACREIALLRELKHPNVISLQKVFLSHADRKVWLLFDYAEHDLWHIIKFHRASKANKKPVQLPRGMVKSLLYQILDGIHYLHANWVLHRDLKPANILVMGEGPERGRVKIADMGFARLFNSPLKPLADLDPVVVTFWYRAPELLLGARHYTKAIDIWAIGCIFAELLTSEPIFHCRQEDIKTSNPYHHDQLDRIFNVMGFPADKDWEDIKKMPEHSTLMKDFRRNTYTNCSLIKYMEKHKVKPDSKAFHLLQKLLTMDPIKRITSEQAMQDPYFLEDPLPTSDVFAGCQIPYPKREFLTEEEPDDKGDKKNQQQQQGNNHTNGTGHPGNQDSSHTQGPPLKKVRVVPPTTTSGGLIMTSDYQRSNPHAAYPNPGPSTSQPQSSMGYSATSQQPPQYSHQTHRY

In the case of CCCCN(CCCC)C(=O)CN1C[C@@H](c2cc(OC)c3c(c2)OCO3)[C@H](C(=O)O)[C@H]1CC(C)(C)CCC [A-545], the residual activity [1] is reported as 100%, the residual activity [2] is reported as 99.4% and the residual activity [3] is reported as 96.7%. The residual activity [4] was 100%, the residual activity [5] was 100% and the residual activity [6] was 97.7%. The residual activity [7] was 78%, the residual activity [8] was 100% and the residual activity [9] was 100%. For the same compound, the residual activity [10] was 72.4%, the residual activity [11] was 86.7% and the residual activity [12] was 99.1%. The residual activity [13] was 91.1%, the residual activity [14] was 94.4% and the residual activity [15] was 100%. The residual activity [16] was 100%, the residual activity [17] was 95% and the residual activity [18] was 95.8%. For the same compound, the residual activity [19] was 78.8%, the residual activity [20] was 80.6% and the residual activity [21] was 100%. For the same compound, the residual activity [22] was 95.8%, the residual activity [23] was 100% and the residual activity [24] was 97%. The residual activity [25] was 93.6%, the residual activity [26] was 100% and the residual activity [27] was 84.6%. For the same compound, the residual activity [28] was 85.5%, the residual activity [29] was 100% and the residual activity [30] was 98.7%. It also gave a residual activity [31] of 100%, a residual activity [32] of 100% and a residual activity [33] of 100%. The residual activity [34] was 100%, the residual activity [35] was 77.9% and the residual activity [36] was 81.4%. The residual activity [37] was 86.1%, the residual activity [38] was 100% and the residual activity [39] was 100%. For the same compound, the residual activity [40] was 98.4%, the residual activity [41] was 100% and the residual activity [42] was 95.9%. The residual activity [43] was 100%, the inhibition [44] was 27.1% and the inhibition [45] was 41.3%.
CCCCN(CCCC)C(=O)CN1C[C@H](c2cc(OC)c3c(c2)OCO3)[C@@H](C(=O)O)[C@@H]1CC(C)(C)CCC [ABT-546] showed a residual activity [1] of 96.9%, a residual activity [2] of 100% and a residual activity [3] of 100%. It also gave a residual activity [4] of 100%, a residual activity [5] of 42.7% and a residual activity [6] of 100%. For the same compound, the residual activity [7] was 100%, the residual activity [8] was 100% and the residual activity [9] was 100%. For the same compound, the residual activity [10] was 100%, the residual activity [11] was 100% and the residual activity [12] was 98.1%. For the same compound, the residual activity [13] was 100%, the residual activity [14] was 100% and the residual activity [15] was 100%. The residual activity [16] was 85%, the residual activity [17] was 100% and the residual activity [18] was 100%. The residual activity [19] was 57.4%, the residual activity [20] was 64.2% and the residual activity [21] was 100%. It also gave a residual activity [22] of 100%, a residual activity [23] of 100% and a residual activity [24] of 100%. It also gave a residual activity [25] of 71.3%, a residual activity [26] of 100% and a residual activity [27] of 81.2%. It also gave a residual activity [28] of 88.7%, a residual activity [29] of 100% and a residual activity [30] of 100%. It also gave a residual activity [31] of 100%, a residual activity [32] of 56.1% and a residual activity [33] of 100%. The residual activity [34] was 57.4%, the residual activity [35] was 89.8% and the residual activity [36] was 100%. It also gave a residual activity [37] of 100%, a residual activity [38] of 100% and a residual activity [39] of 79.4%. The residual activity [40] was 100%, the residual activity [41] was 100% and the residual activity [42] was 100%. It also gave a residual activity [43] of 100%, an inhibition [44] of 3.64% and an inhibition [45] of 48.5%.
